From BindingDB's records for doi:10.1021/jm980108d (Prassis Istituto Di Ricerche Sigma-Tau, 1998)

Biological target: Sodium/potassium-transporting ATPase (Canis familiaris)
Test: Compound was evaluated for its ability to inhibit the specific [3H]-ouabain binding to dog kidney Na+/K+ ATPase

Row | Compound | IC50 [µM]
1 | C[C@]12CC[C@H](O)C[C@H]1CC[C@@H]1[C@@H]2CC[C@]2(C)[C@@H](/C=C/C=O)CC[C@]12O | 0.06
2 | C[C@H]1/C(=C/C(=O)OCCN(C)C)CCC2C1C(=O)C[C@H]1C(C)(C)[C@@H](O)CC[C@]21C (stereo partly drawn) [[(1R,4bR,7S,8aR)-7-Hydroxy-1,4b,8,8-tetramethyl-10-oxo-dodecahydro-phenanthren-(2E)-ylidene]-acetic acid 2-dimethylamino-ethyl ester] | 0.1
